The values that follow come from ChEMBL document CHEMBL1201862, “PubChem BioAssay data set” (2004).

The structures appear in SMILES notation.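 Method: 48-hour compound exposure of cells in 96-well plates, five concentrations, linear interpolation of endpoints. Here, GI50 denotes the concentration required for 50% inhibition of growth.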 Active and inactive are the calls of the source. Rule as the data show it: active = GI50 up to about 1.1 µM and inactive = higher.

Test systems include A498; OVCAR-5; NCI/ADR-RES; Malme-3M; DU-145; LOX IMVI; KM12; ACHN; Hs-578T; SR; BT-549; MDA-MB-435; SNB-75; SK-MEL-28; K562; MDA-N; CAKI-1; NCI-H23; SK-OV-3.
Assay in all cases: NCI tumour cell line growth inhibition, 48 h

Consider `O=C(C[N+]1(c2ccccc2)CCOCC1)c1ccccc1`, for which the GI50 in the test with A498, with OVCAR-5, with NCI/ADR-RES, with Malme-3M, in the test with DU-145 and in the test with LOX IMVI was > 100 µM (inactive) throughout. Besides, the GI50 in the test on KM12 was > 100 µM (inactive); in the test on ACHN it was > 100 µM (inactive); with Hs-578T it was > 100 µM (inactive); in the test on SR, 34.8 µM (inactive); with BT-549, > 100 µM (inactive); with MDA-MB-435, > 100 µM (inactive). Further, the GI50 in the test on SNB-75 is > 100 µM (inactive); in the test on SK-MEL-28 it was 0.0445 µM (active); in the test with K562, 40.9 µM (inactive); with MDA-N, > 100 µM (inactive); in the test with CAKI-1, > 100 µM (inactive); with NCI-H23, > 100 µM (inactive).
Turning to `CC(C)(C)OC(=O)NCCC1CN(C(=O)c2ccccc2)c2ccccc21` (stereo not drawn), the GI50 with A498 is > 100 µM (inactive); with OVCAR-5, 32.7 µM (inactive); with NCI/ADR-RES, 22.1 µM (inactive); in the test with Malme-3M it was 28.9 µM (inactive); in the test with DU-145, 45.8 µM (inactive); in the test with KM12, 31.5 µM (inactive). Moreover, the GI50 in the test with ACHN was 32.7 µM (inactive); with Hs-578T, 43.5 µM (inactive); in the test on SR, 7.82 µM (inactive); in the test on BT-549, 25.1 µM (inactive); with MDA-MB-435 it was 27.6 µM (inactive); in the test with SNB-75 it was 28.7 µM (inactive). Also, the GI50 was 32.7 µM (inactive) with SK-MEL-28; 27 µM (inactive) with K562; 21.6 µM (inactive) in the test with MDA-N; 36 µM (inactive) with CAKI-1; 26.3 µM (inactive) with NCI-H23; > 100 µM (inactive) in the test with SK-OV-3.
In the case of `O=C(NC(=O)c1cc(-c2ccccc2)n[nH]1)c1ccccc1`, the GI50 in the test with A498, with OVCAR-5, in the test on NCI/ADR-RES, in the test on DU-145, in the test on LOX IMVI and in the test with KM12 was > 100 µM (inactive) each time. Besides, the GI50 in the test on ACHN is > 100 µM (inactive); in the test on Hs-578T, > 100 µM (inactive); in the test on SR, 24 µM (inactive); with BT-549, > 100 µM (inactive); with MDA-MB-435, > 100 µM (inactive); with SNB-75, 26.5 µM (inactive). Further, the GI50 in the test with SK-MEL-28 is > 100 µM (inactive); in the test with K562, 77.8 µM (inactive); in the test on MDA-N it was > 100 µM (inactive); in the test with CAKI-1, > 100 µM (inactive); in the test with NCI-H23, > 100 µM (inactive); with SK-OV-3, > 100 µM (inactive).
`O=C(/C=C/c1ccccc1)Oc1cccc(Br)c1`: the GI50 in the test on A498 is 61.8 µM (inactive); in the test with OVCAR-5 it was > 100 µM (inactive); in the test with NCI/ADR-RES it was 60.1 µM (inactive); in the test on DU-145, 89.9 µM (inactive); with LOX IMVI, 29.7 µM (inactive); with KM12, 31.8 µM (inactive). For the same compound, the GI50 in the test with ACHN was > 100 µM (inactive); with Hs-578T it was 16.6 µM (inactive); with SR, 23.4 µM (inactive); in the test with BT-549, > 100 µM (inactive); with MDA-MB-435 it was > 100 µM (inactive); with SNB-75, 45.3 µM (inactive). For the same compound, the GI50 in the test with SK-MEL-28 was > 100 µM (inactive); with MDA-N, 96.6 µM (inactive); in the test on CAKI-1, 48.6 µM (inactive); with NCI-H23, > 100 µM (inactive); with SK-OV-3, > 100 µM (inactive).
In the case of `C=CCN1C(=O)C=C(c2ccccc2)n2ncc3cccc1c32`, the GI50 in the test with A498 is 44.3 µM (inactive); in the test on OVCAR-5, > 100 µM (inactive); in the test on NCI/ADR-RES it was > 100 µM (inactive); in the test with Malme-3M, > 100 µM (inactive); in the test on DU-145, > 100 µM (inactive); in the test with LOX IMVI, > 100 µM (inactive). For the same compound, the GI50 is 47.8 µM (inactive) in the test with KM12; > 100 µM (inactive) in the test with ACHN; > 100 µM (inactive) with Hs-578T; > 100 µM (inactive) with SR; > 100 µM (inactive) with BT-549; 1.46 µM (inactive) with MDA-MB-435. Further, the GI50 with SK-MEL-28, in the test on MDA-N, in the test on CAKI-1, in the test on NCI-H23 and in the test with SK-OV-3 was > 100 µM (inactive) in each case.
`CO[C@@H]1C[C@H]2[C@@H]3CC[C@H]([C@@H](C)COC(C)=O)[C@@]3(C)CC[C@@H]2[C@@]2(C)CC[C@H]3C[C@]312`: the GI50 in the test on A498 was 20 µM (inactive); in the test with OVCAR-5 it was 11.5 µM (inactive); in the test with NCI/ADR-RES, 14.1 µM (inactive); in the test on Malme-3M it was 16 µM (inactive); in the test on DU-145, 14 µM (inactive); with LOX IMVI it was 11.4 µM (inactive). The GI50 is 11.1 µM (inactive) in the test on KM12; 16.6 µM (inactive) in the test on ACHN; 18.5 µM (inactive) with Hs-578T; 10 µM (inactive) with SR; 14.2 µM (inactive) in the test with BT-549; 15.1 µM (inactive) in the test with MDA-MB-435. In addition, the GI50 in the test with SNB-75 is 17.9 µM (inactive); in the test with SK-MEL-28, 17.1 µM (inactive); in the test on K562 it was 10.2 µM (inactive); with MDA-N it was 16.9 µM (inactive); in the test with CAKI-1 it was 9.12 µM (inactive); with NCI-H23 it was 12.8 µM (inactive).
Regarding `COc1ccccc1/C=C/C1=NN(c2cccc(S(=O)(=O)O)c2)C2(C1)SCC(=O)N2c1nc2ccccc2s1` (stereo not drawn), the GI50 is 83.4 µM (inactive) with A498; > 100 µM (inactive) in the test on OVCAR-5; > 100 µM (inactive) with NCI/ADR-RES; > 100 µM (inactive) in the test on Malme-3M; 89.7 µM (inactive) with DU-145; 53.5 µM (inactive) with LOX IMVI. The GI50 was 41.1 µM (inactive) with KM12; 55.7 µM (inactive) in the test with ACHN; > 100 µM (inactive) in the test with Hs-578T; 24.5 µM (inactive) in the test with SR; 56.1 µM (inactive) with BT-549; > 100 µM (inactive) in the test on MDA-MB-435. Besides, the GI50 in the test with SNB-75 is > 100 µM (inactive); in the test with SK-MEL-28, > 100 µM (inactive); with K562, 36.2 µM (inactive); in the test with MDA-N it was > 100 µM (inactive); in the test on CAKI-1, > 100 µM (inactive); with NCI-H23, 30.3 µM (inactive).
`CCN(CC)CCOc1ccc(N2C(=O)c3cc(OC)c(OC)cc3C2=O)cc1`: the GI50 with A498, with OVCAR-5, with NCI/ADR-RES, in the test with Malme-3M, in the test with DU-145 and with LOX IMVI was > 100 µM (inactive) throughout. For the same compound, the GI50 in the test with KM12, with ACHN, with Hs-578T, in the test with SR, in the test on BT-549 and in the test on MDA-MB-435 was > 100 µM (inactive) each time. In addition, the GI50 with SK-MEL-28, in the test with K562, in the test with MDA-N, in the test on CAKI-1, in the test on NCI-H23 and with SK-OV-3 was > 100 µM (inactive) throughout.
With `O=C(O)C1CCCN1C(=O)c1cc(Cl)ccn1` (stereo not drawn), the GI50 in the test on A498, in the test with OVCAR-5, with NCI/ADR-RES, with Malme-3M, in the test with DU-145 and with LOX IMVI was > 100 µM (inactive) in each case. Moreover, the GI50 in the test with KM12, with ACHN, with Hs-578T, in the test with SR, with BT-549 and in the test with MDA-MB-435 was > 100 µM (inactive) each time. In addition, the GI50 in the test with SNB-75, with SK-MEL-28, with K562, in the test with MDA-N, with CAKI-1 and with NCI-H23 was > 100 µM (inactive) in each case.
Turning to `O=C1CSC2=NC3=C(COC/C3=C\c3ccc(Br)cc3)C(c3ccc(Br)cc3)N12` (stereo not drawn), the GI50 with A498 is > 100 µM (inactive); in the test on OVCAR-5, > 100 µM (inactive); in the test with NCI/ADR-RES, 31.8 µM (inactive); with DU-145, > 100 µM (inactive); with LOX IMVI, 53.6 µM (inactive); in the test on KM12, 29.1 µM (inactive). For the same compound, the GI50 with ACHN is 82.8 µM (inactive); in the test on Hs-578T, > 100 µM (inactive); with SR it was 15.3 µM (inactive); with BT-549, > 100 µM (inactive); with MDA-MB-435, 49 µM (inactive); in the test on SNB-75 it was 70.5 µM (inactive). Further, the GI50 in the test with K562 is 28.9 µM (inactive); in the test on MDA-N it was 43 µM (inactive); with CAKI-1 it was > 100 µM (inactive); in the test with NCI-H23, 90.6 µM (inactive); in the test with SK-OV-3, > 100 µM (inactive).
As to `COc1nc(-c2c[nH]c3ccccc23)cnc1N`, the GI50 is 15.1 µM (inactive) with A498; 14.4 µM (inactive) in the test on OVCAR-5; 38.5 µM (inactive) in the test with NCI/ADR-RES; 23.4 µM (inactive) with DU-145; 25.3 µM (inactive) with LOX IMVI; 9.18 µM (inactive) in the test with KM12. In addition, the GI50 in the test on ACHN was 14.2 µM (inactive); in the test with Hs-578T, 17.7 µM (inactive); with SR, 15 µM (inactive); with BT-549 it was 33.7 µM (inactive); in the test with MDA-MB-435 it was 23.4 µM (inactive); with SK-MEL-28 it was 25.5 µM (inactive). In addition, the GI50 is 33.6 µM (inactive) in the test with K562, 18.4 µM (inactive) in the test with MDA-N, 24.6 µM (inactive) in the test with CAKI-1 and 30.9 µM (inactive) in the test with SK-OV-3.
